Bridge positions count the residues as written; N and C are the ends. Peptide text beside a SMILES is read from it.
Legend:
hKv1.2 = target: T1, hKv1.2 (Homo sapiens, UniProt P16389); experiment: Whole-cell patch clamp, Kv1.2 ionic current in CHO-K1 cells; format: cell-based; conditions: +30 mV, 500 ms, holding −80 mV, mean ± SD, n = 4–7, read-out: IC50, inhibition of Kv1.2 current (full inhibition)
T1 construct: expressed in transfected cells; host or cells: CHO-K1
Procedure: The cDNA of hKv1.1, hKv1.2, hKv1.3, rKv1.4, hKv1.5, mKv1.6, and hKv1.7 were subcloned into mammalian expression vectors pcDNA3.1 or pCMV-blank vectors, as well as other plasmids described previously ([35]). Channel mutants were generated by site-directed mutations. Briefly, the parental channel plasmid was amplified using a pair of oppositely directed primers harboring the designed mutation site, with KOD Fx (TOYOBO Co, Ltd). The resulting PCR mix was treated with FastDigest DpnI (Thermo Fisher Scientific) to remove the methylated template. Ten microliters of the digested product was then used to transform 100 μl E. coli DH5α competent cells. […]
(§1) CHO-K1 cells were selected for expressing Kv channels due to their lack of endogenous Kv channels, while HEK293 or ND7/23 cells were used for Nav and Cav channel expression. […] After 4 to 6 h transfection, cells were seeded onto poly-lysine–coated coverslips, and 24 to 36 h later, transfected cells were ready for patch-clamp analysis. […]
For Kv current recordings, the bath solution contained (in mM) the following: 140 NaCl, 5 KCl, 1 MgCl2, 2 CaCl2, 10 glucose, and 10 Hepes (pH 7.3, adjusted with NaOH), and the pipette solution contained (in mM) the following: 140 KCl, 2.5 MgCl2, 11 EGTA, and 10 Hepes (pH 7.3, adjusted with KOH). […] The steady-state fast inactivation of Kv1.3 was measured using a two-pulses protocol. […]

hERG = experiment: Selectivity patch clamp, non-Kv1 channels; format: cell-based, human; conditions: 10 μM MrVIII; n = 3–5
Procedure: CHO-K1 cells were selected for expressing Kv channels due to their lack of endogenous Kv channels, while HEK293 or ND7/23 cells were used for Nav and Cav channel expression. CHO-K1 cells were cultured in a Dulbecco's modified Eagle's medium/Ham's F-12 nutrient mixture (DMEM-F12) medium, and HEK293T and ND7/23 cells in DMEM medium, all supplemented with 10% fetal bovine serum and 1% penicillin-streptomycin (all from Gibco, Thermo Fisher Scientific, Inc) under standard conditions (37 °C, 5% CO2, and saturated humidity). These cell lines were purchased from Stem Cell Bank, Chinese Academy of Sciences. […] After 4 to 6 h transfection, cells were seeded onto poly-lysine–coated coverslips, and 24 to 36 h later, transfected cells were ready for patch-clamp analysis. […]
For Kv current recordings, the bath solution contained (in mM) the following: 140 NaCl, 5 KCl, 1 MgCl2, 2 CaCl2, 10 glucose, and 10 Hepes (pH 7.3, adjusted with NaOH), and the pipette solution contained (in mM) the following: 140 KCl, 2.5 MgCl2, 11 EGTA, and 10 Hepes (pH 7.3, adjusted with KOH). […] Whole cell conductance (G) at each depolarizing voltage (V) was determined using the equation: G = I/(V−Vrev), where I is the current amplitude, and Vrev is the reversal potential. […] The steady-state fast inactivation of Kv1.3 was measured using a two-pulses protocol. […]

[1] = target: T2, Kv1.1/QM (Kv1.1/E283Q_T286M) (Homo sapiens, UniProt Q09470, E283Q/T286M); experiment: Whole-cell patch clamp, Kv1.1 double mutant; format: cell-based; conditions: +30 mV, mean ± SD, n = 3–5, read-out: IC50, Kv1.1/QM current (full inhibition)
T2 construct: expressed in transfected cells; host or cells: CHO-K1
Description: In contrast, differences at positions 347, 355, and 358 between Kv1.3 and Kv1.1 prompted further analysis. To explore whether these discrepancies influence peptide-mediated inhibition, we substituted these residues in Kv1.3 with their homologous counterparts in Kv1.1 and assessed the MrVIII's inhibitory efficacy on these single-point mutants. […] To further investigate this, we introduced double adjacent mutations around Q355 and M358 in Kv1.3 to explore potential synergistic effects on MrVIII's inhibitory activity. […]
as §1
For Kv current recordings, the bath solution contained (in mM) the following: 140 NaCl, 5 KCl, 1 MgCl2, 2 CaCl2, 10 glucose, and 10 Hepes (pH 7.3, adjusted with NaOH), and the pipette solution contained (in mM) the following: 140 KCl, 2.5 MgCl2, 11 EGTA, and 10 Hepes (pH 7.3, adjusted with KOH). […] Whole cell conductance (G) at each depolarizing voltage (V) was determined using the equation: G = I/(V−Vrev), where I is the current amplitude, and Vrev is the reversal potential. […]

T2 sequence (Q09470 whole entry E283Q/T286M): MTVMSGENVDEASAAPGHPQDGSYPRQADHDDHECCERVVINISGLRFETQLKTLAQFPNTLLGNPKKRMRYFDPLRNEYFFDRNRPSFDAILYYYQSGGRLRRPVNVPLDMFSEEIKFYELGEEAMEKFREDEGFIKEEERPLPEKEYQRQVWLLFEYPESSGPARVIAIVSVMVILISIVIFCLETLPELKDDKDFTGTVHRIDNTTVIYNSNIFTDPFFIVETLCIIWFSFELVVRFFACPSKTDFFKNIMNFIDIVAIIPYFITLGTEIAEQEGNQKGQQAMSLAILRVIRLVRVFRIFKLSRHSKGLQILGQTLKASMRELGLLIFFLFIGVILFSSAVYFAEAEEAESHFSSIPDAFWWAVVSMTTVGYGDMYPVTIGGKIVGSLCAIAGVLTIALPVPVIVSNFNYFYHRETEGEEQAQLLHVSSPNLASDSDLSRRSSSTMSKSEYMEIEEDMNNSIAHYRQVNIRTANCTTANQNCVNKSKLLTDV
T1 sequence (P16389 whole entry): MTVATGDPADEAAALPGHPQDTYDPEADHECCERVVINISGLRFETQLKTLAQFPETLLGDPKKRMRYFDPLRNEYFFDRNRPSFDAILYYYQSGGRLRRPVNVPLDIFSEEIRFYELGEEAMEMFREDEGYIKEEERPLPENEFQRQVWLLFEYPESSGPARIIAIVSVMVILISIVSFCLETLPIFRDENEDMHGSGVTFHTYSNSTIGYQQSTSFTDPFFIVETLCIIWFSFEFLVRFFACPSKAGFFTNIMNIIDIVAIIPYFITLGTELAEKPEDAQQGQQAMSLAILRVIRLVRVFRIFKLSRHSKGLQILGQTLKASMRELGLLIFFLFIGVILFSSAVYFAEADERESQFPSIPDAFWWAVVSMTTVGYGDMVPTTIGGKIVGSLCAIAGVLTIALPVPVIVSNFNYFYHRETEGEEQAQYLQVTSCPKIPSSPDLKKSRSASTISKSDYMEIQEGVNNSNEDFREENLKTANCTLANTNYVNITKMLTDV

What does the source list for `CC[C@H](C)[C@@H]1NC(=O)[C@H](Cc2ccc(O)cc2)NC(=O)[C@H](CCC(N)=O)NC(=O)[C@@H]2CCCN2C(=O)[C@@H]2CSSC[C@H](NC(=O)[C@H](C)NC(=O)[C@H](CO)NC(=O)[C@H](CCC(=O)O)NC(=O)[C@H](CCC(=O)O)NC(=O)[C@@H](N)[C@@H](C)O)C(=O)NCC(=O)NCC(=O)N[C@@H](Cc3ccccc3)C(=O)N[C@@H](CC(N)=O)C(=O)N[C@@H](C)C(=O)N[C@@H](CCCNC(=N)N)C(=O)N[C@H]3CSSC[C@H](NC1=O)C(=O)N[C@@H](CCCCN)C(=O)NCC(=O)N[C@@H](Cc1c[nH]c4ccccc14)C(=O)N[C@@H](CCCNC(=N)N)C(=O)N[C@@H]([C@@H](C)O)C(=O)N[C@@H](CCCCN)C(=O)N[C@@H](CCCNC(=N)N)C(=O)N[C@H](C(=O)N[C@@H](CC(C)C)C(=O)N[C@@H](CC(N)=O)C(=O)N1CCC[C@H]1C(=O)O)CSSC[C@H](NC(=O)[C@H](CCCCN)NC(=O)[C@H](Cc1c[nH]cn1)NC(=O)[C@H](CC(C)C)NC(=O)[C@@H]1CCCN1C3=O)C(=O)N2` [MrVIII] (H-TEESACGGFNARCPLHKCCPQYICKGWRTKRCLNP-OH; disulfide 6-19, 13-24, 18-32; N-terminus and C-terminus assumed)?
IC50 (hKv1.2): 0.5 ± 0.1 nM; inhibition of hERG current (hERG): did not remarkably inhibit; IC50 [1]: 7.7 ± 5.3 nM

Source: paper PMC11984586, “A novel spider toxin as a selective antagonist of the Kv1 subfamily of voltage-gated potassium channels through gating modulation” (The Journal of Biological Chemistry, 2025)
